According to PubChem BioAssay (NCI):
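Results reflect a 48-hour exposure of cells in 96-well plates to compound at five concentrations. TGI: concentration producing complete growth inhibition.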

Legend:
Assay in all cases: NCI-60 cell line screen, 48 h
COLO 205 colon = tested on: COLO 205 colon
HCT-15 colon = tested on: HCT-15 colon
HT29 colon = tested on: HT29 colon
MOLT-4 leukemia = tested on: MOLT-4 leukemia
PC-3 prostate = tested on: PC-3 prostate
SN12C renal = tested on: SN12C renal
SW-620 colon = tested on: SW-620 colon
UACC-257 melanoma = tested on: UACC-257 melanoma

Compound	TGI (COLO 205 colon) [µM]	TGI (HCT-15 colon) [µM]	TGI (HT29 colon) [µM]	TGI (MOLT-4 leukemia) [µM]	TGI (PC-3 prostate) [µM]	TGI (SN12C renal) [µM]	TGI (SW-620 colon) [µM]	TGI (UACC-257 melanoma) [µM]
O=C(NNC(=O)c1ccco1)c1ccco1	> 100	> 100	> 100	> 100	> 100	> 100	> 100	> 100
S=C(NCc1ccccn1)N/N=C/c1ccccn1	0.379	> 100	> 100	< 0.0357	> 84.9	9.25	> 100	< 0.01
Nc1nc(N)c2nc(CN(C=O)c3ccc(C(=O)O)cc3)cnc2n1	> 100	> 100	> 100	> 100	> 100	> 100	> 100	> 100
Cc1ccc(C(=O)N/N=C(\N=Nc2ccc([N+](=O)[O-])cc2)c2ccc(N(CCC#N)CCC#N)cc2C)cc1	> 100	> 100	> 100	> 100	> 100	> 100	> 100	> 100
CC1(C)N=C(C(N)=O)c2[nH]cnc2N1	> 100	> 100	> 100	–	> 100	> 100	> 100	> 100
O=C1NC(N2CCCC(CO)C2)=N/C1=C\c1cccs1 (configuration not stated)	> 100	> 100	> 100	> 100	> 100	> 100	> 100	> 100
Cc1ccc(/C=c2\cc3oc(=O)c4cccc(c4-3)c2=O)cc1	> 100	> 100	> 100	–	> 100	> 100	> 100	> 100
C=CCOCC1C2CCC3(OCCO3)C21 (configuration not stated)	> 100	> 100	> 100	> 100	> 100	> 100	> 100	> 100
CNC(=O)[C@H](Cc1ccccc1)NC(=O)N(CCC#N)CCN(C(=O)N[C@@H](Cc1ccccc1)C(=O)OC)c1ccccc1	> 100	> 100	> 100	> 100	> 100	–	> 100	> 100
CSc1c(C(C)=O)c(O)n(-c2ccc(C)cc2)c(=O)c1C#N	> 100	> 100	> 100	> 100	> 100	> 100	> 100	> 100
O=C(/C=C/c1ccc(OCc2ccccc2)cc1)NCc1ccc(C(=O)NCCc2ccccc2)cc1	> 100	> 100	> 100	–	> 100	> 100	> 100	> 100
CCOC(=O)C(O)(CC1=NC(C(=O)OC)(C(=O)OC)C(c2cccc(C=O)c2)O1)C(=O)OCC (configuration not stated)	> 100	> 100	> 100	> 100	> 100	> 100	> 100	> 100
CC(C)(C)OC(=O)Cn1ncn(NC(=O)Cc2ccccc2)c1=S	> 10	> 10	> 10	> 10	> 10	> 10	> 10	> 10
O=C1Cc2cc3ccccc3nc2-c2ccccc2N1	> 100	> 100	> 100	> 100	> 100	> 100	> 100	> 100
NC(=S)NNCC(=O)CC(O)(C(F)(F)F)C(F)(F)Cl (configuration not stated)	> 100	> 100	> 100	> 100	> 100	–	> 100	> 100
CCCOC(=O)c1cc(O)c(O)c(O)c1	> 100	> 100	> 100	> 100	> 100	> 100	> 100	> 100
CC(=O)OC1CCn2c1nc1cc([N+](=O)[O-])c(C)cc12 (configuration not stated)	> 100	> 100	> 100	> 100	> 100	> 100	> 100	> 100
COc1cccc(NC(=O)CC(=O)NN)c1	> 100	> 100	> 100	> 100	> 100	> 100	> 100	> 100
COC1OC2COC(=O)c3cc(O)c(O)c(O)c3-c3c(cc(O)c(O)c3O)C(=O)OC2C(O)C1O (configuration not stated)	> 100	> 100	> 100	> 100	> 100	30.1	57.9	> 100
C[C@]12CC[C@H]3[C@@H](CC=C4C[C@@H](O)CC[C@@]43C)[C@@H]1C/C(=C\c1cccnc1)[C@@H]2O	> 100	> 100	> 100	–	> 100	55.2	> 100	> 100
O=c1c(-c2nc3ccccc3c3ccccc3c2=O)nc2ccccc2c2ccccc12	> 100	> 100	> 100	> 100	89.6	99.1	> 100	> 100
CCOP1(=O)CC(C)=C(Cl)C(OC)C1 (configuration not stated)	> 100	> 100	> 100	> 100	> 100	> 100	> 100	> 100
COc1cc(/C=C(\C)[N+](=O)[O-])cc(OC)c1	20.1	29.9	38.5	6.16	34.8	31	9.16	31
CCOC(=O)C1=C(O)CC(=O)N=C1N1CCCC1	> 100	> 100	> 100	> 100	> 100	> 100	> 100	> 100
ClC1=NSSC1(Cl)Cl	30.8	60	> 100	53.4	> 100	41.7	82.3	> 100
COC(=O)c1ccccc1CC1Cc2c(C)ccc(C)c2C1=O (configuration not stated)	34.3	> 100	61.6	45.6	> 100	> 100	> 100	48.2
